PubChem BioAssay (NCI)
“And” between values parts separate entries of the source, which are not always exact repeats. Equal entries are not always repeated.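 These data come from cells grown in 96-well plates and exposed to compound for 48 hours at five concentrations. The concentration for 50% growth inhibition is given as GI50. TGI: total growth inhibition.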

How the values were obtained:
Experiment in all cases: inhibition of tumour cell growth, NCI panel, 48 h
CCRF-CEM leukemia = test system: CCRF-CEM leukemia
SK-MEL-2 melanoma = test system: SK-MEL-2 melanoma
MALME-3M melanoma = test system: MALME-3M melanoma
MDA-MB-231 breast = test system: MDA-MB-231 breast
HOP-92 NSCLC = test system: HOP-92 NSCLC
HT29 colon = test system: HT29 colon
HL-60(TB) leukemia = test system: HL-60(TB) leukemia
OVCAR-4 ovarian = test system: OVCAR-4 ovarian
NCI-H460 lung = test system: NCI-H460 lung
SF-295 CNS = test system: SF-295 CNS

Structure (SMILES) | TGI (CCRF-CEM leukemia) | TGI (SK-MEL-2 melanoma) | TGI (MALME-3M melanoma) | TGI (MDA-MB-231 breast) | TGI (HOP-92 NSCLC) | TGI (HT29 colon) | TGI (HL-60(TB) leukemia) | TGI (OVCAR-4 ovarian) | TGI (NCI-H460 lung) | TGI (SF-295 CNS) | GI50 (CCRF-CEM leukemia) | GI50 (SK-MEL-2 melanoma) | GI50 (MALME-3M melanoma) | GI50 (MDA-MB-231 breast) | GI50 (HOP-92 NSCLC) | GI50 (HT29 colon) | GI50 (HL-60(TB) leukemia) | GI50 (OVCAR-4 ovarian) | GI50 (NCI-H460 lung) | GI50 (SF-295 CNS)
CC1=C(/C=C/C(C)=C/C=C/C(C)=C/C(=O)O)C(C)(C)CCC1 | 70.8 µM | 48.8 µM | > 75.6 µM | 99.6 µM | > 83.4 µM | 68.3 µM | 59.3 µM | > 100 µM | 70.5 µM | > 88.6 µM |  |  |  |  |  |  |  |  |  | 
OCCNc1nc(Nc2ccc(Cl)c(Cl)c2)nc2ccccc12 | 18.1 µM | 33.1 µM | 17.5 µM | 5.4 µM | 7.51 µM | 12.1 µM | 33.4 µM | 18.4 µM | 16.5 µM | 20.2 µM | 3.07 µM | 16.4 µM | 4.97 µM | 1.97 µM | 2.05 µM | 3.39 µM | 8.69 µM | 4.64 µM | 3.71 µM | 6.1 µM
O=C(/C=C/C12c3ccccc3C(c3ccccc31)C1C(=O)NC(=O)C12)c1ccc(F)cc1 (configuration not stated) | 8.42 µM | 4.23 µM | 4.02 µM | 9.58 µM | 3.55 µM | 5.21 µM | 2.1 µM | 13.2 µM | 5.05 µM | 4.24 µM | 2.45 µM | 2.06 µM | 1.97 µM | 3.05 µM | 1.59 µM | 2.34 µM | 0.0217 µM | 3.46 µM | 2.04 µM | 2.01 µM
O=[N+]([O-])c1cc(C(F)(F)F)ccc1Sc1ccc(C(F)(F)F)cc1[N+](=O)[O-] | > 100 µM | 9.96 µM | > 100 µM | > 100 µM | > 100 µM | 9.79 µM | > 100 µM | > 100 µM | > 100 µM | > 100 µM | 3.47 µM | 3.32 µM | 17.5 µM | 5.1 µM | 7.96 µM | 3.28 µM | 3.32 µM | 4.05 µM | 19 µM | 31.4 µM
COc1ccc2c(c1)C(=O)/C(=C/c1ccc([N+](=O)[O-])o1)O2 | 2.19 µM | 3.83 µM | 3.48 µM | 3.17 µM | 2.79 µM | 2.74 µM | 4.19 µM | 2.06 µM | 3.83 µM | 9.89 µM | 0.513 µM | 1.83 µM | 1.61 µM | 1.41 µM | 0.793 µM | 0.954 µM | 1.74 µM | 0.81 µM | 1.75 µM | 2.35 µM
CCOC(=O)c1cc(-c2ccccc2)[nH]c1N/N=C/c1ccc(Cl)cc1 | > 100 µM | > 100 µM | > 100 µM | > 100 µM | > 100 µM | > 100 µM | 63.8 µM | > 100 µM | > 100 µM | > 100 µM | 5.86 µM | 62.6 µM | > 100 µM | > 100 µM | 46.9 µM | 37.3 µM | 29.5 µM | 70.9 µM | 58.1 µM | > 100 µM
CCCCCCCCCCCCCCCCCCOCC(CCP(=O)(CP(=O)(O)O)Oc1ccccc1)OCCCCCCCCCCCCCCCCCC (configuration not stated) | > 100 µM |  | > 100 µM | > 100 µM | > 100 µM | > 100 µM | > 100 µM | > 100 µM | > 100 µM | > 100 µM |  |  |  |  |  |  |  |  |  | 
CSC(=S)OC1CC(n2cnc3c(NC(=O)c4ccccc4)ncnc32)OC1CO[Si](C)(C)C(C)(C)C (configuration not stated) | > 51.7 µM | 53.4 µM | 51.9 µM | > 46.4 µM | 44.4 µM | > 56.2 µM | 32.6 µM | > 56.2 µM | > 56.2 µM | > 56.2 µM |  |  |  |  |  |  |  |  |  | 
CC(=O)O[C@H]1[C@@H]2OC(=O)C(CSc3ccccc3)[C@@H]2C[C@H]2O[C@]2(C)CC/C=C(\C)CCC[C@@H]1C (some centres not stated) | > 21.1 µM | 8.69 µM | 19.5 µM | 19.5 µM | 5.43 µM | 14.9 µM | 4.69 µM | 10.9 µM | 19.3 µM | 34.6 µM | 2.17 µM | 3.11 µM | 4.05 µM | 4.25 µM | 1.74 µM | 3.51 µM | 1.4 µM | 2.98 µM | 4.4 µM | 3.73 µM
CCc1ccc(C(=Nc2ccc(N(C)C(=O)CN3CCN(C)CC3)cc2)c2c(O)[nH]c3ccc(C(=O)OC)cc23)cc1 | 1.16 µM | 2.83 µM | 1.9 µM | 2.09 µM | 2.63 µM | 3.17 µM | 1.01 µM | 1.95 µM | 2.21 µM | 2.4 µM | 0.256 µM | 1.23 µM | 0.516 µM | 0.585 µM | 1.23 µM | 0.247 µM | 0.328 µM | 0.582 µM | 0.748 µM | 1.01 µM
Cc1ccc(NS(=O)(=O)c2cccc(C#N)c2)c2[nH]cc(C#N)c12 | > 100 µM | 59.7 µM and 52.4 µM | 57.1 µM and 68.2 µM | > 85 µM | 38.1 µM and 48.2 µM | > 100 µM | 65.4 µM and > 82.2 µM | 87.2 µM and 51.2 µM | > 100 µM | 49.7 µM and 52.9 µM | 11.9 µM and 14.3 µM | 22.5 µM and 15.1 µM | 15.5 µM and 12.9 µM | 13.6 µM and 22 µM | 7.78 µM and 12.8 µM | 33.5 µM and 12.5 µM | 20.1 µM and 26.8 µM | 2.65 µM and 8.22 µM | 18.1 µM and 22.6 µM | 2.85 µM and 2.22 µM
C/C(=C\c1cc(C(F)(F)F)n(-c2ccc(N)cc2)n1)[C@@H]1C[C@@H]2O[C@]2(C)CCC[C@H](C)[C@H](O)[C@@H](C)C(=O)C(C)(C)[C@@H](O)CC(=O)O1 | > 11.1 µM | 0.382 µM | > 11.1 µM | > 11.1 µM | > 11.1 µM | 0.339 µM | 2.68 µM | > 11.1 µM | > 5.06 µM | 1.39 µM | 0.0421 µM | 0.0295 µM | 0.089 µM | 0.137 µM | 0.258 µM | 0.00621 µM | 0.0168 µM | 2.19 µM | 0.00733 µM | 0.0369 µM
C/C(O)=C(\C#N)C(=O)Nc1ccc(C(F)(F)F)cc1 | > 100 µM | > 100 µM | > 100 µM | > 100 µM | > 100 µM | > 100 µM | > 100 µM | > 100 µM | > 100 µM |  | 18.5 µM | 73.2 µM | 62.8 µM | 26.3 µM | 13.4 µM | 44.6 µM | 64.3 µM | 91 µM | 8.92 µM | 
